Patent US5171662A, “Method of detecting HIV protease activity” (priority 1991, dated 1992)
Non-standard residues stand in square brackets, D forms with d. Residues, ends and D or L forms follow the SMILES beside them. No end group written: not given here. *: point of attachment. Sta = CC(C)C[C@H](N)[C@@H](O)CC(=O)O; Isovaleryl = CC(C)CC(=O)*

Legend:
[1] = test system: synthetic protease (99-residue peptide with the sequence proposed for the HIV protease); settings: cited from earlier work
HIV protease [2] = settings: cited from earlier work
HIV protease [3] = settings: cited from earlier work; remark: listed apart in the source
HIV protease [4] = biological target: HIV protease (HIV-1 M:B_HXB2R, UniProt P04585); assay: Cleavage of tetradecapeptide substrate by HIV protease, Ang I determined by RIA; format: biochemical
From the text: The tetradecapeptide (TDP) substrate, Asp-Arg-Val-Tyr-Ile-His-Pro-Phe-His-Leu-Leu-Val-Tyr-Ser, was obtained from Peninsula Laboratories, Inc., Belmont, Calif. The Ang I RIA kit was purchased from Baxter Health Care Corporation, Cambridge, Mass. Recombinant HIV-1 protease was purified and refolded from E. coli as published previously (Tomasselli, A. G. et. al. (1990) Biochemistry 29, 264-269). The TDP substrate has an HIV protease cleavage site which when cut at the Leu-Leu bond produces authentic Ang I. The Ang I RIA kit detected the Angiotesin I if produced.
The various steps of the in vitro assay to screen a compound were performed as follows. The series of assays are done for each compound, each assay using a different concentration of compound. The various reagents were added to the system in the order which they are listed.
1. 52 μl assay buffer (0.1M Sodium Acetate, 10% glycerol, 3 mM EDTA, 5% ethylene glycol, 1 mg/ml BSA, pH 5.5)
2. 15 μl HIV-1 protease (final Concentration in assay 0.75 μg/ml). For inhibition studies, 12 μl of inhibitor solution was added prior to adding the enzyme.
3. 135 μl of 2.8 uM substrate (final concentration about 1.9 μM)
4. […]
5. […] Following an overnight equilibration at room temperature, the tubes are drained and the amount of radioactivity (^125 I-labeled Ang I) remaining on the tube is determined in a gamma counter. […]

Molecule	inhibition of proteolytic action of the synthetic protease [1]	inhibition of autoprocessing which liberates the protease from the precursor (HIV protease [2])	inhibition of cleavage of gag precursor polyproteins by HIV protease (HIV protease [3])	cleavage of substrate by HIV protease (HIV protease [4])
CC(C)CC(=O)N[C@H](C(=O)N[C@H](C(=O)N[C@@H](CC(C)C)[C@@H](O)CC(=O)N[C@@H](C)C(=O)N[C@@H](CC(C)C)[C@@H](O)CC(=O)O)C(C)C)C(C)C [pepstatin A] (Isovaleryl-VV[Sta]A[Sta]-OH)	can be inhibited by pepstatin	can be inhibited	can be inhibited by pepstatin A	–
DRVYIHPFHLLVYS [TDP]	–	–	–	HIV protease cleaves the Ang I substrate
